# Reference: patent US12357702B2, “Peptidic diagnostic compositions” (S. M. Discovery Group Inc., priority 2013, dated 2025)
# Where a SMILES comes first, the peptide text is derived from it. Where no end group is shown, it is not given here. The star is where a group is joined. RhodamineB = CCN(CC)c1ccc2c(-c3ccccc3C(=O)*)c3ccc(=[N+](CC)CC)cc-3oc2c1; 5FAM = O=C1OC2(c3ccc(O)cc3Oc3cc(O)ccc32)c2ccc(C(=O)*)cc21; FAM = fluorescein amidite label
# What was measured:
# hCMEC/D3 cells [1] = assay: LDH cytotoxicity assay; format: cell-based, human; conditions: 24 h; for LDH leakage in the medium compared to the control: 1 to 20 μM peptide
# Experimental: Cell viability assessment following treatment of cells with the fluorescent peptide FIG. 26A or siRNA/FAM-CGY complex FIG. 26B for 24 h, determined by LDH assay (n=6). Background: untreated cells. To examine the cytotoxicity of the peptide and the siRNA/FAM-CGY complex, the hCMEC/D3 cells were incubated with concentrations 1, 2, 5, 10, 20 μM of the peptide and different relations of siRNA/FAM-CGY complexes (8:5, 16:5 or 24:5) for 24 h, the viability of cells without treatment was used as a control. The cytotoxicity was measured by a LDH assay. The LDH assay measures the membrane integrity as a function of the amount of cytoplasmic LDH leaked into the medium.
# The cytoxicity of FAM-CGY peptide and siRNA/FAM-CGY complex was evaluated by […] (LDH) assay (FIG. 26). The hCMEC/D3 cells were incubated with different concentrations of the peptide (from 1 to 20 μM) and different formulations of siRNA/FAM-CGY complexes for 24 h. The viability of cells without treatment was used as a control. The LDH assay has means of measuring the membrane integrity as a function of the amount of cytoplasmic LDH leaked into the medium. […] Thus, there were no significant differences observed between the groups treated with FAM-CGY, FAM-d-CGY and CGY-FAM.
# [2] = test system: complement activation products SC5d-9, C5a, and C3a; assay: complement activation in human serum; conditions: healthy human serum, low and high concentration
# Experimental: FIGS. 12A, 12B, and 12C are graphs illustrating a complement activation experiment. The complement activation products FIG. 12A. […], FIG. 12B. C5a, and FIG. 12C. C3a were quantified in healthy human serum after incubation of CGY, FAM-CGY and FAM-d-CGY peptide at low and high concentration. Background noise and positive control (Zymosan) are presented for each product. Complement activation and fixation is a fundamental process contributing to macrophage clearance of intravenously injected nanopaticles. Accordingly, complement activation studies in human serum were performed with low and high concentrations of FAM-CGY peptide and other peptides (CGY, FAM-d-CGY) for comparison. […] The responses were relatively low, and close to the background activation. Only a slight level of complement activation was observed compared to the positive control (Zymosan). There were no systematic differences between the activation below and above CMC. Conclusion: The FAM-CGY nanoparticles are unlikely to induce complement-mediated immune reactions following intravenous injection.
# hCMEC/D3 cells [3] = assay: uptake of FAM-CGY and FAM-GYR-GYR peptides by FACS; format: cell-based, human; conditions: 1-10 μM, 24 h, all tested concentrations
# Experimental: The different cellular uptake of FAM-CGY and FAM-GYR-GYR peptides in hCMEC/D3 cells was investigated by flow cytometry (FACS). hCMEC/D3 cells (2×10^4/cm^2) were seeded on 24-well plate (Corning, NY) and grown 2 days at 37° C. and 5% CO2 in order to reach 60%-70% confluency. The cells were washed 3 times with pre-heated PBS. The peptide uptake experiments were initiated by adding 200 μL of a range of FAM-CGY and FAM-GYR-GYR in different concentrations (1-10 μM/L, diluted in cell medium containing serum). The double peptide contains the sequence […](SEQ ID NO: 2) and optionally has an N-terminal cysteine residue.
# After 24 h incubation at 37° C. with 5% CO2, each chamber was washed with pre-heated PBS 3 times, and harvested by trypsinization. A total of 10,000 cells were analyzed by flow cytometry (FACS Array™ Cell Analysis, BD, USA) (FIG. 35).
# [4] = test system: brain capillary endothelial cells; conditions: cited from earlier work
# hCMEC/D3 cells [5] = assay: double peptide-mediated GFP plasmid transfection; format: cell-based, human
# Experimental: To evaluate double peptide (DP)-mediated gene transfection, different concentrations of DP and constant amounts of pcDNA3.1 NT-GFP expression plasmid (0.3 μg) (the peptide/DNA change ration of 1:10, 1:20 and 1:40 were investigated in this study) were mixed into 50 μL serum free media, and complexes were formed for 1 h at room temperature, after which another 150 μL serum free media was added (total volume of peptide/DNA complex was 200 μL). The cultured hCMEC/D3 cells (2×10^4 cells) were overlaid with 200 μL peptide/DNA complex, followed by incubation for 4 h at 37° C. in 5% CO2 atmosphere. The cultures were then a washed once with serum-free media and transferred to complete media containing 5% serum for growth. After 48 h, GFP gene expressions were monitored by fluorescence microscopy. Lipofectamine® 2000-mediated transfections were performed as described by the manufacturer's protocol (Life Technologies, CA, USA).
# hCMEC/D3 cells [6] = assay: delivery of cargo peptides by Rh-CGY or CGY peptidic complexes (microscopy, FACS); format: cell-based, human; conditions: 10 μM Rh-CGY or CGY peptide, 24 h
# Experimental: Peptidic complexes were formed by drop addition of cargoes (FAM-(C)-NAP, FAM-GYR, FAM-NAP, FAM) to 80 μM rhodamine-conjugated CGY peptide (Rh-CGY) or 80 μM CGY peptide (Table X) in MilliQ (MQ) water with equitable liquid volume and incubated for 60 min. The mixture was diluted with MQ water to a final Rh-CGY or CGY peptide concentration of 10 μM. The peptidic complexes were characterized by NTA for size and electron microscopy (EM) for mophology. Western blot was also employed to detect disulfide bond, which form between the cargo and Rh-CGY peptide or CGY peptide. Briefly, the peptide or complex samples were loaded on 10% Bis-Tris mini gels (Invitrogen, CA, USA) and subjected to electrophoresis. The separated samples were electrophoretically transferred to PVDF membranes by use of an iBlot™ Gel Transfer Device (Life Technologies, USA). Membranes were blocked for 1 h at room temperature in 3% BSA/TBST (137 mM Sodium Chloride, 20 mM Tris, 0.1% Tween-20, pH 7.6), and incubated over night at 4° C. with HRP-Goat anti-Fluorescein antibody (diluted 1:1000 in 2% BSA/TBST). For detection, membranes were incubated with Novex® ECL Chemiluminescent Substrate Reagent Kit (Invitrogen, CA, USA).
# Delivery peptide to hCMEC/D3 cells. […] Live cell images were obtained by widefield microscopy, and the intercellular fluorescence intensity was quantified by FACS.
# [7] = Nanoparticle Tracking Analysis (NTA) of peptide self-assembly; format: physicochemical; conditions: in MQ water
# Experimental: To investigate whether the polypeptide conjugate can self-assemble, Nanoparticle Tracking Analysis (NTA) technology was employed to detect the peptide aggregation. Briefly, 1 mL peptide solutions with different concentrations (0.5, 1, 2.5 and 5 μM) were prepared by diluting the peptide stock solutions (500 μM) with MQ water and incubate for 30 min at room temperature. NTA measurements were performed with a NanoSight LM20 (NanoSight Ltd., Amesbury, United Kingdom) equipped with a sample chamber with a 405 nm blue laser and a Viton fluoroelastomer O-ring. The peptide samples were injected in the sample chamber with sterile syringes (BD Discardit II, New Jersey, USA) until the liquid reached the tip of the nozzle. All measurements were performed at room temperature. For the pH effect of FAM-CGY peptide assembly, FAM-CGY stock solution (500 μM) was diluted into 5 μM with 10 mM HEPES buffer where pH values were adjusted with 1 M HCl or 1 M NaOH, respectively.
# Different molar rates of siRNA were added to the FAM-CGY peptide solution (50 μM/L) dropwise in saline solution and incubated for 30 min. […] The atomic force microscopy (AFM) (FIG. 22A), nanoparticle tracking analysis (NTA) (FIG. 22B), fluorescence microscopy (not shown), dynamic light scattering (DLS) technology (not shown) and transmission electron microscopy (TEM) (FIG. 23) were employed to characterize the siRNA/FAM-CGY complex. […]
compound,measurement,setting,value
5-FAM-dCys-dGly-dTyr-dArg-dPro-dVal-dHis-dAsn-dIle-dArg-dGly-dHis-dTrp-dAla-dPro-dGly [FAM-d-CGY],LDH leakage in the medium compared to the control,hCMEC/D3 cells [1],did not significantly increase
CC[C@H](C)[C@H](NC(=O)[C@H](CC(N)=O)NC(=O)[C@H](Cc1c[nH]cn1)NC(=O)[C@@H](NC(=O)[C@@H]1CCCN1C(=O)[C@H](CCCNC(=N)N)NC(=O)[C@H](Cc1ccc(O)cc1)NC(=O)CNC(=O)[C@H](CS)NC(=O)c1ccc2c(c1)C(=O)OC21c2ccc(O)cc2Oc2cc(O)ccc21)C(C)C)C(=O)N[C@@H](CCCNC(=N)N)C(=O)NCC(=O)N[C@@H](Cc1c[nH]cn1)C(=O)N[C@@H](Cc1c[nH]c2ccccc12)C(=O)N[C@@H](C)C(=O)N1CCC[C@H]1C(=O)NCC(=O)O [FAM-CGY] (5FAM-CGYRPVHNIRGHWAPG-OH),LDH leakage in the medium compared to the control,hCMEC/D3 cells [1],did not significantly increase
same,cytotoxicity (LDH assay),hCMEC/D3 cells [1],no significant cytotoxicity
same,"effect on the level of complement activation products SC5d-9, C5a, and C3a",[2],no significant effect
Cys-Gly-Tyr-Arg-Pro-Val-His-Asn-Ile-Arg-Gly-His-Trp-Ala-Pro-Gly-Lys-5-FAM (CGYRPVHNIRGHWAPGK(5FAM); not fully specified (C-terminus); printed as Cys-Gly-Tyr-Arg-Pro-Val-His-Asn-Ile-Arg-Gly-His-Trp-Ala-Pro-Gly-Lys-5-FAM) [CGY-FAM],LDH leakage in the medium compared to the control,hCMEC/D3 cells [1],did not significantly increase
"FAM-GYR-GYR: FAM-labelled double peptide containing SEQ ID NO: 2, two GYR sequences joined by a glycine residue ({FAM}-GYRPVHNIRGHWAPGGGYRPVHNIRGHWAPG)",uptake compared with FAM-CGY peptide (FACS),hCMEC/D3 cells [3],considerably higher uptake
"GYRPVHNIRGHWAPG [SEQ ID NO: 1, targeting peptide of WO2011/005098]",liposome uptake when peptide is coupled to liposomes,[4],did not significantly increase liposome uptake
GYRPVHNIRGHWAPGGGYRPVHNIRGHWAPG [DP],translocation of plasmids into cells,hCMEC/D3 cells [5]; charge ratios of peptide/DNA more than 20,able to mediate translocation of plasmids into cells
same,transfection efficiency (GFP fluorescence intensity),"hCMEC/D3 cells [5]; peptide/DNA charge ratio 40:1, 48 h",comparable with commercial transfection reagent Lipofectamine® 2000
Rh-CGY: Rhdomine B conjugated with CGY peptide in the N-terminal (RhodamineB-CGYRPVHNIRGHWAPG),uptake / delivery of cargo into hCMEC/D3 cells,hCMEC/D3 cells [6],can efficiently enter the hCMEC/D3 cells
same,mean (average) size of self-assembly (NTA),[7],131±60 nm
same,mode (modal size) of self-assembly (NTA),[7],94 nm
